Test system: T1, IfCelS12A
T1 construct: tag removal not described
Experiment: hydrolysis kinetics, Lineweaver-Burk plot
Type: biochemical, Iocasia fonsfrigidae
Details: 50 mM Tris-HCl pH 7.0, 50 °C, 10 min, 0.5 μM enzyme
Description: hydrolysis kinetics, Lineweaver-Burk plot on IfCelS12A

Structure (SMILES) | Km [µM]
OC[C@H]1O[C@@H](O[C@H]2[C@H](O)[C@@H](O)[C@H](O[C@H]3[C@H](O)[C@@H](O)[C@H](O[C@H]4[C@H](O)[C@@H](O)[C@H](O[C@H]5[C@H](O)[C@@H](O)[C@H](O[C@H]6[C@H](O)[C@@H](O)C(O)O[C@@H]6CO)O[C@@H]5CO)O[C@@H]4CO)O[C@@H]3CO)O[C@@H]2CO)[C@H](O)[C@@H](O)[C@@H]1O (stereo partly drawn) [G6, Cellohexaose] | 390
OC[C@H]1O[C@@H](O[C@H]2[C@H](O)[C@@H](O)[C@H](O[C@H]3[C@H](O)[C@@H](O)[C@H](O[C@H]4[C@H](O)[C@@H](O)C(O)O[C@@H]4CO)O[C@@H]3CO)O[C@@H]2CO)[C@H](O)[C@@H](O)[C@@H]1O (stereo partly drawn) [G4, Cellotetraose] | 250
OC[C@H]1O[C@@H](O[C@H]2[C@H](O)[C@@H](O)[C@H](O[C@H]3[C@H](O)[C@@H](O)[C@H](O[C@H]4[C@H](O)[C@@H](O)[C@H](O[C@H]5[C@H](O)[C@@H](O)C(O)O[C@@H]5CO)O[C@@H]4CO)O[C@@H]3CO)O[C@@H]2CO)[C@H](O)[C@@H](O)[C@@H]1O (stereo partly drawn) [G5, Cellopentaose] | 270

Reference: paper PMC10774164, “Hydrolysis of ionic liquid–treated substrate with an Iocasia fonsfrigidae strain SP3-1 endoglucanase” (Applied Microbiology and Biotechnology, 2024)
